According to ChEMBL document CHEMBL1641574 (Bioorg Med Chem, 2011):
pIC50, pKi: −log10 of the molar value. Calls of active or inactive are those of the source. The calls are words filed in the database; no cut-off is given here.

What was measured:
Assay type in all cases: cell-based
[1] = molecular target: T1, Sodium-dependent dopamine transporter (Homo sapiens, UniProt Q01959); assay: Displacement of [3H]WIN-35428 from human DAT stably expressed in mouse N2A cells by scintillation countnig
[2] = molecular target: T1, Sodium-dependent dopamine transporter; assay: Inhibition of [3H]dopamine uptake at human DAT expressed in mouse N2A cells
[3] = molecular target: T1, Sodium-dependent dopamine transporter; assay: Binding affinity to human DAT expressed in UV irradiated mouse N2A cells by photoaffinity labeling assay; conditions: tested as the 125I-labelled form

T1 sequence (Q01959 whole entry): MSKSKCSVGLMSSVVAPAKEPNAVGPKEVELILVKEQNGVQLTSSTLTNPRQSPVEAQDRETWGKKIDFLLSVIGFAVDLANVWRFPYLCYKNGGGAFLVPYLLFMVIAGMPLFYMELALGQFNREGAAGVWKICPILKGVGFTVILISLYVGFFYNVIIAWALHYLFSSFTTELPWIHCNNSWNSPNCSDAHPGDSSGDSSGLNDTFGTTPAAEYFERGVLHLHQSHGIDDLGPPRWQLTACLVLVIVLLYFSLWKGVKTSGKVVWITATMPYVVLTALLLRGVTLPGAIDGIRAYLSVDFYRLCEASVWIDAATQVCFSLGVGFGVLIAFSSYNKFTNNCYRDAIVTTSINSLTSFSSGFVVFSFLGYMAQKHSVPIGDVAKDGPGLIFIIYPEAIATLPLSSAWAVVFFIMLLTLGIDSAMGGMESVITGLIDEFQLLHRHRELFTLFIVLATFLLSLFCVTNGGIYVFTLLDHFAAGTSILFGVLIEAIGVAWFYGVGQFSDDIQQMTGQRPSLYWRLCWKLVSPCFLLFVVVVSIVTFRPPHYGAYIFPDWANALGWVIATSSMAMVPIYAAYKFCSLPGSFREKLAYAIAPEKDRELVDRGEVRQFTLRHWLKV

Molecule `COC(=O)[C@H](c1cccc(I)c1)[C@H]1CCCCN1Cc1cccc(N=[N+]=[N-])c1` (racemic) has a pKi [1] of 5.69 and a pIC50 [2] of 5.33.
`COC(=O)[C@H](c1ccc(I)cc1)[C@H]1CCCCN1Cc1ccccc1N=[N+]=[N-]` (racemic) gave a pKi [1] of 6.29 and a pIC50 [2] of 5.91.
With `COC(=O)[C@H](c1cccc(I)c1)[C@H]1CCCCN1Cc1ccc(N=[N+]=[N-])cc1` (racemic) the pKi [1] was 6.18 and the pIC50 [2] was 5.74.
Work on `COC(=O)[C@H](c1ccc(I)cc1)[C@H]1CCCCN1Cc1cccc(N=[N+]=[N-])c1` (racemic) yielded a pKi [1] of 5.56 and a pIC50 [2] of 5.10.
With `COC(=O)[C@H](c1cccc(I)c1)[C@H]1CCCCN1Cc1ccccc1N=[N+]=[N-]` (racemic) the pKi [1] was 5.95 and the pIC50 [2] was 5.57.
In the case of `COC(=O)[C@H](c1ccc(I)cc1)[C@H]1CCCCN1` (racemic), the pKi [1] was 7.85 and the pIC50 [2] was 7.96.
With `COC(=O)[C@H](c1ccc(I)cc1)[C@H]1CCCCN1Cc1ccc(N=[N+]=[N-])cc1` (racemic) the pKi [1] was 6.44, the Activity [3] was “Active” and the pIC50 [2] was 5.56.
With `COC(=O)[C@H](c1cccc(I)c1)[C@H]1CCCCN1` (racemic) the pKi [1] was 8.35 and the pIC50 [2] was 7.85.
